We go through one compound from patent US20040072180A1, “Dna binding peptide domains and a method for providing domains of this type” (priority 2000, published 2004).

The test deals with yeast strain YM 4271 transformed with pHISi3xE2Fwt. The test is described as follows: Growth of pHISi3xE2Fwt-transformed yeast colonies on histidine-free minimal medium agar with increasing 3-aminotriazole. To be noted: no histidine. The format is cell-based. Here is the method: 1 μg of pHISi3xE2Fwt was completely linearized with 10 U of XhoI for 1 hour, purified using the QiaQuick PCR Purification Kit (Qiagen/Hilden, Germany) according to the manufacturer's instructions and taken up in 50 μl of water. […] This culture was incubated with shaking at 30° C. until an optical density of 0.4-0.6 at 600 nm was reached. The culture was then removed by centrifugation at 1000× g for 5 minutes, and the cells were taken up in 1.5 ml of 100 mM lithium acetate pH 7.5, 10 mM Tris-HCl pH 7.5, 1 mM EDTA. 100 μl of said cells, 50 μl of the linearized plasmid and 100 μg of heat-denatured salmon sperm DNA were admixed with 600 μl of a PEG/LiAc solution (100 mM lithium acetate pH 7.5, 10 mM Tris-HCl pH 7.5, 1 mM EDTA, 40% (w/v) polyethylene glycol 4000) and incubated with shaking at 30° C. for 30 min. After adding 70 μl of dimethyl sulfoxide, the mixture was incubated at 42° C. for 15 min. The cells were subsequently removed by centrifugation, washed in 1 ml of 10 mM Tris-HCl pH 7.5, 1 mM EDTA and plated out in their entirety on a minimal medium agar plate without addition of histidine, on which 12 colonies had grown after 7 days at 30° C.

For the compound `Nc1nc[nH]n1` [3-aminotriazole], where the note is “one clone (yeast3xE2Fwt)”, the “3-AT concentration at which growth was completely suppressed” value is on record as 2 mM and the “3-AT concentration at which growth was suppressed markedly” value was determined as 0.5 mM. Moreover, the “3-AT concentration at which growth was inhibited” value (remaining 10 clones) was > 30 mM. For the same compound, the “3-AT concentration at which clones did not grow any more” value (this clone and another clone) was determined as 3 mM.
